{
  "source": "patent US10351547B2",
  "about": "“Somatostatin modulators and uses thereof” (priority 2016, dated 2019)",
  "data": [
    {"target": "human SSTR2 (Homo sapiens (Human), UniProt P30874)", "sequence (P30874 whole entry)": "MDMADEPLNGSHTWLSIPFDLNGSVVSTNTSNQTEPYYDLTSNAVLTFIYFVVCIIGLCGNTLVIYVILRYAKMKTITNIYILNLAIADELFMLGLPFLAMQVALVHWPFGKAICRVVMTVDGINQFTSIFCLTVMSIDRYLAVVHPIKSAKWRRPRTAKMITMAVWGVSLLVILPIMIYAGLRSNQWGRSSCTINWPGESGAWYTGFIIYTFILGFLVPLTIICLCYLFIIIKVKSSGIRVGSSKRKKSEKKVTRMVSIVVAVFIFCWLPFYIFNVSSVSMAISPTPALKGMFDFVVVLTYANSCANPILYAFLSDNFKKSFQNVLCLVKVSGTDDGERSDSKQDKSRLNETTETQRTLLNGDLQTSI", "experiment": "Human SSTR2 intracellular cAMP functional assay for agonists (HTRF)", "format": "cell-based", "conditions": "not given", "summary_of_the_method": "(§1)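 Cells bearing human SSTR2 exposed to compound for 20 minutes at 37 °C; after lysis, cAMP measured by time-resolved fluorescence (HTRF) and converted via a standard curve. EC50 calculated from cAMP versus compound concentration.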", "units": {"EC50": "nM"}, "values": [
      {"smiles": "NC(=O)c1cnc(N2CCC2)c(-c2ccc3ncc(-c4cc(F)cc(F)c4)c(N4CCC(N)CC4)c3c2)c1", "note": "[2-76, 5-[4-(4-aminopiperidin-1-yl)-3-(3,5-difluorophenyl)quinolin-6-yl]-6-(azetidin-1-yl)pyridine-3-carboxamide]", "EC50": "100 to 1000"},
      {"smiles": "Cc1cc(F)cc(-c2cnc3ccc(-c4cc(F)cc(C#N)c4O)cc3c2N2CC(CNC3CCOC3)C2)c1", "note": "(stereo not drawn) [2-45, 5-fluoro-3-[3-(3-fluoro-5-methylphenyl)-4-(3-{[(oxolan-3-yl)amino]methyl}azetidin-1-yl)quinolin-6-yl]-2-hydroxybenzonitrile]", "EC50": "10 to 100"},
      {"smiles": "N#Cc1cccc(-c2ccc3ncc(-c4cc(F)cc(F)c4)c(N4CC[C@@H](N)[C@@H](O)C4)c3c2)c1O", "note": "(relative stereo) [2-60, cis-3-{4-[4-amino-3-hydroxypiperidin-1-yl]-3-(3,5-difluorophenyl)quinolin-6-yl}-2-hydroxybenzonitrile]", "EC50": "< 10"},
      {"smiles": "CCNCC1CN(c2c(-c3cc(C)cc(F)c3)cnc3ccc(-c4cc(F)cc(C#N)c4O)cc23)C1", "note": "[2-18, 3-(4-{3-[(ethylamino)methyl]azetidin-1-yl}-3-(3-fluoro-5-methylphenyl)quinolin-6-yl)-5-fluoro-2-hydroxybenzonitrile]", "EC50": "< 10"},
      {"smiles": "Cc1cc(F)cc(-c2cnc3ccc(-c4cc(F)cc(C#N)c4O)cc3c2N2CC(CN3CCC(F)(F)C3)C2)c1", "note": "[2-47, 3-(4-{3-[(3,3-difluoropyrrolidin-1-yl)methyl]azetidin-1-yl}-3-(3-fluoro-5-methylphenyl)quinolin-6-yl)-5-fluoro-2-hydroxybenzonitrile]", "EC50": "100 to 1000"},
      {"smiles": "CO[C@@H]1CN(c2c(-c3cc(F)cc(F)c3)cnc3ccc(-c4cccc(C#N)c4O)cc23)CC[C@H]1N", "note": "(relative stereo) [2-3, 3-{4-[trans-4-amino-3-methoxypiperidin-1-yl]-3-(3,5-difluorophenyl)quinolin-6-yl}-2-hydroxybenzonitrile]", "EC50": "< 10"}
    ]},
    {"target": "human SSTR2 (Homo sapiens (Human), UniProt P30874)", "experiment": "Human SSTR2 intracellular cAMP functional assay for agonists (HTRF)", "format": "cell-based", "conditions": "CHO-K1 cells stably expressing human SSTR2; NKH477-stimulated cAMP; read-out: EC50 (inhibition of cAMP activities via human SST2R)", "summary_of_the_method": "as §1", "units": {"EC50": "nM"}, "values": [
      {"smiles": "COC(=O)Nc1c(F)cc(F)cc1-c1ccc2ncc(-c3cc(F)cc(F)c3)c(N3CCC(N)CC3)c2c1", "note": "[2-83, methyl N-{2-[4-(4-aminopiperidin-1-yl)-3-(3,5-difluorophenyl)quinolin-6-yl]-4,6-difluorophenyl}carbamate]", "EC50": "< 10"},
      {"smiles": "Cc1cc(F)cc(-c2cnc3ccc(-c4cc(F)cc(C#N)c4O)cc3c2N2CC(CNCCO)C2)c1", "note": "[2-43, 5-fluoro-3-[3-(3-fluoro-5-methylphenyl)-4-(3-{[(2-hydroxyethyl)amino]methyl}azetidin-1-yl)quinolin-6-yl]-2-hydroxybenzonitrile]", "EC50": "< 10"},
      {"smiles": "Cc1cc(F)cc(-c2cnc3ccc(-c4cc(F)cc(F)c4NC(=O)NOC(C)C)cc3c2N2CCC(N)CC2)c1", "note": "[2-216, 1-{2-[4-(4-aminopiperidin-1-yl)-3-(3-fluoro-5-methylphenyl)quinolin-6-yl]-4,6-difluorophenyl}-3-(propan-2-yloxy)urea]", "EC50": "< 10"},
      {"smiles": "N#Cc1cccc(-c2ccc3nnc(-c4cc(F)cc(Cl)c4)c(N4CCC(N)CC4)c3c2)c1O", "note": "[1-19, 3-[4-(4-aminopiperidin-1-yl)-3-(3-chloro-5-fluorophenyl)cinnolin-6-yl]-2-hydroxybenzonitrile]", "EC50": "< 10"},
      {"smiles": "NC(=O)c1cccc(-c2ccc3ncc(-c4cc(F)cc(F)c4)c(N4CC[C@H]5NCCO[C@@H]5C4)c3c2)n1", "note": "[2-85, trans-6-[3-(3,5-difluorophenyl)-4-{octahydro-1H-pyrido[3,4-b]morpholin-6-yl}quinolin-6-yl]pyridine-2-carboxamide]", "EC50": "< 10"},
      {"smiles": "Cc1cc(F)cc(-c2cnc3ccc(-c4cc(F)cc(C#N)c4O)cc3c2N2CC(CN3CC[C@H](F)C3)C2)c1", "note": "[2-49, 5-fluoro-3-[3-(3-fluoro-5-methylphenyl)-4-(3-{[(3 S)-3-fluoropyrrolidin-1-yl]methyl}azetidin-1-yl)quinolin-6-yl]-2-hydroxybenzonitrile]", "EC50": "< 10"},
      {"smiles": "CONC(=O)Nc1c(F)cc(F)cc1-c1ccc2ncc(-c3cc(F)cc(F)c3)c(N3CCC(N)CC3)c2c1", "note": "[2-139, 1-{2-[4-(4-aminopiperidin-1-yl)-3-(3,5-difluorophenyl)quinolin-6-yl]-4,6-difluorophenyl}-3-methoxyurea]", "EC50": "< 10"},
      {"smiles": "Cc1ccnc(-c2ccc3ncc(-c4cc(F)cc(F)c4)c(N4CC[C@H]5NCCO[C@@H]5C4)c3c2)c1O", "note": "[2-258, 2-{4-[trans-octahydro-1H-pyrido[3,4-b]morpholin-6-yl]-3-(3,5-difluorophenyl)quinolin-6-yl}-4-methylpyridin-3-ol]", "EC50": "< 10"},
      {"smiles": "COC(=O)Nc1c(F)cc(F)c(F)c1-c1ccc2ncc(-c3cc(F)cc(F)c3)c(N3CCC(N)CC3)c2c1", "note": "[2-123, methyl N-{2-[4-(4-aminopiperidin-1-yl)-3-(3,5-difluorophenyl)quinolin-6-yl]-3,4,6-trifluorophenyl}carbamate]", "EC50": "< 10"},
      {"smiles": "N#Cc1cccc(-c2ccc3ncc(-c4cc(F)cc(F)c4)c(N4CC[C@H]5NCCO[C@@H]5C4)c3c2)c1O", "note": "(relative stereo) [2-19, 3-{4-[trans-octahydro-1H-pyrido[3,4-b]morpholin-6-yl]-3-(3,5-difluorophenyl)quinolin-6-yl}-2-hydroxybenzonitrile]", "EC50": "< 10"},
      {"smiles": "O=c1[nH]c2cc(-c3ccc4ncc(-c5cc(F)cc(F)c5)c(N5CC[C@H]6NCCO[C@@H]6C5)c4n3)cc(F)c2[nH]1", "note": "(relative stereo) [3-10, 6-{8-[trans-octahydro-1H-pyrido[3,4-b]morpholin-6-yl]-7-(3,5-difluorophenyl)-1,5-naphthyridin-2-yl}-4-fluoro-2,3-dihydro-1H-1,3-benzodiazol-2-one]", "EC50": "< 10"},
      {"smiles": "Cc1cc(F)cc(-c2nnc3cc(Cl)c(-c4cc(F)cc(C(N)=O)c4)cc3c2N2CCC(NCCF)CC2)c1", "note": "[1-25, 3-[7-chloro-3-(3-fluoro-5-methylphenyl)-4-{4-[(2-fluoroethyl)amino]piperidin-1-yl}cinnolin-6-yl]-5-fluorobenzamide]", "EC50": "< 10"},
      {"smiles": "N#Cc1cccc(-c2ccc3ncc(-c4cc(F)cc(F)c4)c(N4CC[C@@H](N)[C@H](C(=O)O)C4)c3c2)c1O", "note": "[2-145]", "EC50": "100 to 1000"},
      {"smiles": "Cc1cc(F)cc(-c2cnc3ccc(-c4cc(F)cc5[nH]c(=O)[nH]c45)nc3c2N2CCC(N)CC2)c1", "note": "[3-3, 4-[8-(4-aminopiperidin-1-yl)-7-(3-fluoro-5-methylphenyl)-1,5-naphthyridin-2-yl]-6-fluoro-2,3-dihydro-1H-1,3-benzodiazol-2-one]", "EC50": "< 10"},
      {"smiles": "NC1CCN(c2c(-c3cc(F)cc(F)c3)cnc3ccc(-c4cccnc4C=NO)cc23)CC1", "note": "[2-196, 1-[3-(3,5-difluorophenyl)-6-{2-[(hydroxyimino)methyl]pyridin-3-yl}quinolin-4-yl]piperidin-4-amine]", "EC50": "< 10"},
      {"smiles": "Cc1cc(Cl)cc(-c2nnc3ccc(-c4cccc(C#N)c4O)cc3c2N2CCC(N)CC2)c1", "note": "[1-18, 3-[4-(4-aminopiperidin-1-yl)-3-(3-chloro-5-methylphenyl)cinnolin-6-yl]-2-hydroxybenzonitrile]", "EC50": "< 10"},
      {"smiles": "COC(=O)Nc1c(C#N)cccc1-c1ccc2ncc(-c3cc(F)cc(OC)c3)c(N3CCC(N)CC3)c2c1", "note": "[2-167, methyl N-{2-[4-(4-aminopiperidin-1-yl)-3-(3-fluoro-5-methoxyphenyl)quinolin-6-yl]-6-cyanophenyl}carbamate]", "EC50": "< 10"},
      {"smiles": "Oc1ncccc1-c1ccc2ncc(-c3cc(F)cc(F)c3)c(N3CC[C@H]4NCCO[C@@H]4C3)c2c1", "note": "[2-248, 3-{4-[trans-octahydro-1H-pyrido[3,4-b]morpholin-6-yl]-3-(3,5-difluorophenyl)quinolin-6-yl}pyridin-2-ol]", "EC50": "< 10"}
    ]}
  ]
}
